# Measurements as given in patent US10213429B2, “Imidazo-pyrazinyl derivatives useful as soluble guanylate cyclase activators” (Merck Sharp & Dohme Corp., priority 2015, dated 2019).
# Biological target: T1, sGC α1/β1 heterodimer (Homo sapiens, UniProt Q02108+Q02153)
# T1 construct: expressed in transfected cells; host or cells: CHO-K1 (clone #7, CHO-K1/sGC)
# T1 sequence (Q02108 1-690): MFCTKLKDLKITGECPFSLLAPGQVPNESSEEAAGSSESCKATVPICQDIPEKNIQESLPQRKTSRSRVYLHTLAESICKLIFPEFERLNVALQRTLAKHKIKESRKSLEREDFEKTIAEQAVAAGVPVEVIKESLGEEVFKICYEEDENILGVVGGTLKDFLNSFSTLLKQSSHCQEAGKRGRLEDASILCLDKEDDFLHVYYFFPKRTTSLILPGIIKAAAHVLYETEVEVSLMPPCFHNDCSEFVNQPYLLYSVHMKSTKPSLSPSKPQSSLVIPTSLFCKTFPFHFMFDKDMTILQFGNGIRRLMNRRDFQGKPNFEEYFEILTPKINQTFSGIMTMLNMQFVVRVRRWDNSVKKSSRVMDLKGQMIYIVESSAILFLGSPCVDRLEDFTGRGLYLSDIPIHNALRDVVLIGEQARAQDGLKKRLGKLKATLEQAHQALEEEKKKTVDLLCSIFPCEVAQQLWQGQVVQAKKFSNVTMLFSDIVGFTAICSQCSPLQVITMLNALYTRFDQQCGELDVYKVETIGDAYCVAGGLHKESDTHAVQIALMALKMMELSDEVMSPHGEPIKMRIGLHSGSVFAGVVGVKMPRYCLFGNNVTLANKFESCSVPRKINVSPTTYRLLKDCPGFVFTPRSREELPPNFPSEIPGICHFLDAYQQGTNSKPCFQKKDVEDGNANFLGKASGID
# T1 sequence (Q02153 1-619): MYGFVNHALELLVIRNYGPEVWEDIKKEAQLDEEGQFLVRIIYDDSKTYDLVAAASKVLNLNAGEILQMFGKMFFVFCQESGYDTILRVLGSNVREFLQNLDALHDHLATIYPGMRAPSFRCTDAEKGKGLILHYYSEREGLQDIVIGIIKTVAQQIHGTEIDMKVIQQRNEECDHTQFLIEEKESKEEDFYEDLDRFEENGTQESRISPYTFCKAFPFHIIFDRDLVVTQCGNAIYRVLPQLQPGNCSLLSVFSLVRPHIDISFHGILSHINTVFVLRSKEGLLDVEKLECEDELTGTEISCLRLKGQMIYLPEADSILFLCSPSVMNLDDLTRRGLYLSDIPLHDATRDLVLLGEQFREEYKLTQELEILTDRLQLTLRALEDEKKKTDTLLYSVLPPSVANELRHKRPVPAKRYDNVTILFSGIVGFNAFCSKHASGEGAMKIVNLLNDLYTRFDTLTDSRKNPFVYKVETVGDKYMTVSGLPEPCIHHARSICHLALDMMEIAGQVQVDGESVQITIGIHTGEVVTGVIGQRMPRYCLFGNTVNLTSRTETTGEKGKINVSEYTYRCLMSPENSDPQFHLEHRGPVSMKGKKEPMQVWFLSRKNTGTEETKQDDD
# Experiment: Cell-Based sGC Functional Assay (CASA Assay), cGMP by HTRF in CHO-K1/sGC cells
# Details: for Emax: CHO-K1, percent activation relative to maximum cGMP production of Compound A (= 100%), read-out: % Act.; for EC50: cGMP production, 1 hr at 37° C., 4P fit, presence or absence of 1 μM DETA-NO not given, read-out: IP (nM) (inflection point); for % Act.: percent activation relative to maximum cGMP production of Compound A (= 100%)
# Text: Biological Assay 1: Cell-Based sGC Functional Assay (CASA Assay)
# sGC is a heme-containing enzyme that converts GTP to secondary messenger cGMP. Increases in cGMP levels affect several physiological processes including vasorelaxation through multiple downstream pathways. […] Heme-dependent activators (HDAs) preferentially activate sGC containing a ferrous heme group. To determine the effect of sGC activators on enzyme activity, the CASA assay was developed to monitor the generation of cGMP in a cell line that stably expresses the heterodimeric sGC protein.
# A CHO-K1 cell line stably expressing the sGC α1/β1 heterodimer was generated using a standard transfection protocol. CHO-K1 cells were transfected with plasmids pIREShyghsGCα1 and pIRESneo-hsGCβ1 simultaneously using FUGENE reagent. Clones that stably express both subunits were selected with hygromycin and neomycin for ˜2 weeks. Clone #7 was chosen for the assay and was designated CHO-K1/sGC. CHO-K1/sGC cells were maintained in F-K12 medium containing 10% heat-inactivated Fetal Bovine Serum (FBS), 100 μg/mL penicillin/streptomycin, 0.5 mg/mL hygromycin and 0.25 mg/mL G418. The cells were then cryopreserved in LN2. On the day of the assay, cells were thawed and resuspended in EBSS Assay Buffer (Sigma, E3024) supplemented with 5 mM MgCl2, 10 mM HEPES (4-(2-hydroxyethyl)piperazine-1-ethanesulfonic acid) and 0.05% BSA (bovine serum albumin) (EAB) and cell density was then adjusted to 4×10^5/mL with EAB. IBMX (3-isobutyl-1-methylxanthin, 0.5 mM) was added to inhibit degradation of cGMP. Compounds were diluted from DMSO stock solutions and added to the assay at a final DMSO concentration of 2.5%. Cells were incubated with compounds in the presence and absence of 1 μM of Diethylenetriamine/nitric oxide adduct (DETA-NO; Sigma, 17018) for 1 hr at 37° C. At the end of the incubation period, the reaction was terminated and the cells were lysed with the detection reagents from Cisbio Kits. The level of intracellular cGMP was determined using an HTRF-based assay kit (CisBio, 62GM2PEC), which detects the displacement of a fluorescence labeled cGMP from its specific antibody. The cGMP produced by test compounds was directly compared to the maximum cGMP production (this value was set to equal 100% activation.) of the published sGC-HDA Compound A:
# [drawing 175] (Example 1 in WO 2010/065275, published Jun. 10, 2010). The test compounds' activities were then expressed as a percentage of Compound A, the standard in every experiment. This percent activation was calculated either in the presence or absence of DETA-NO which was then plotted. IP and maximum fold induction was derived using ADA analysis software for 4P fit.
# The compounds in the Examples of the instant invention had inflection points (IP) less than or equal to 10 μM and most less than or equal to about 1 μM.
Emax [%],EC50 [nM],% Act. [%],SMILES
142,1180,–,"O=C1Nc2nc(-c3cn4ccnc4c(CCC(F)(F)C(F)(F)F)n3)nc(O)c2C1(c1ccc(Cl)cn1)C1CC1 (centres unmarked) [Example 8A, 5-(5-chloropyridin-2-yl)-5-cyclopropyl-4-hydroxy-2-(8-(3,3,4,4,4-pentafluorobutyl)imidazo[1,2-a]pyrazin-6-yl)-5H-pyrrolo[2,3-d]pyrimidin-6(7H)-one]"
104,401,–,"CC1(c2ccc(Cl)cc2)C(=O)Nc2nc(-c3cn4ccnc4c(CCC(F)(F)F)n3)ncc21 (centres unmarked) [Example 61A, 5-(4-chlorophenyl)-5-methyl-2-(8-(3,3,3-trifluoropropyl)imidazo[1,2-a]pyrazin-6-yl)-5H-pyrrolo[2,3-d]pyrimidin-6(7H)-one]"
130,95,–,"CCc1nc(-c2cn3ccnc3c(CCC(F)(F)C(F)(F)F)n2)nc2c1C(C)(c1ccc(F)cc1)C(=O)N2 (centres unmarked) [Example 76A, 4-ethyl-5-(4-fluorophenyl)-5-methyl-2-(8-(3,3,4,4,4-pentafluorobutyl)imidazo [1,2-a]pyrazin-6-yl)-5H-pyrrolo[2,3-d]pyrimidin-6(7H)-one]"
–,936,149,"CC1(C(=O)NC2CC2)C(=O)Nc2nc(-c3cn4ccnc4c(Cc4ccc(F)cc4)n3)ncc21 (single isomer, unassigned) [Example 67B, N-Cyclopropyl-2-(8-(4-fluorobenzyl)imidazo[1,2-a]pyrazin-6-yl)-5-methyl-6-oxo-6,7-dihydro-5H-pyrrolo[2,3-d]pyrimidine-5-carboxamide]"
126,30,–,"O=C1Nc2nc(-c3cn4ccnc4c(CCCC(F)(F)F)n3)ncc2C1(c1ccc(F)cc1)C1CC1 (centres unmarked) [Example 60B, 5-cyclopropyl-5-(4-fluorophenyl)-2-(8-(4,4,4-trifluorobutyl)imidazo[1,2-a]pyrazin-6-yl)-5H-pyrrolo[2,3-d]pyrimidin-6(7H)-one]"
92,657,–,"CCCc1nc(-c2nc(O)c3c(n2)NC(=O)C3(C)c2ccc(Cl)cc2)cn2ccnc12 (centres unmarked) [Example 14A, 5-(4-chlorophenyl)-4-hydroxy-5-methyl-2-(8-propylimidazo[1,2-a]pyrazin-6-yl)-5H-pyrrolo[2,3-d]pyrimidin-6(7H)-one]"
113,36,–,"CC(C)C1(C)C(=O)Nc2nc(-c3cn4ccnc4c(Cc4ccccc4)n3)ncc21 (single isomer, unassigned) [Example 95A, 2-(8-Benzylimidazo[1,2-a]pyrazin-6-yl)-5-isopropyl-5-methyl-5H-pyrrolo[2,3-d]pyrimidin-6(7H)-one]"
100,38,–,"COCCOc1nc(-c2cn3ccnc3c(CCC(F)(F)C(F)(F)F)n2)nc2c1C(C)(c1ccc(F)cc1)C(=O)N2 (centres unmarked) [Example 88A, 5-(4-Fluorophenyl)-4-(2-methoxyethoxy)-5-methyl-2-(8-(3,3,4,4,4-pentafluorobutyl)imidazo[1,2-a]pyrazin-6-yl)-5H-pyrrolo[2,3-d]pyrimidin-6(7H)-one]"
112,7,–,"CCCCc1nc(-c2ncc3c(n2)NC(=O)C3(c2ccc(F)c(F)c2)C2CC2)cn2ccnc12 (centres unmarked) [Example 43A, 2-(8-butylimidazo[1,2-a]pyrazin-6-yl)-5-cyclopropyl-5-(3,4-difluorophenyl)-5H-pyrrolo[2,3-d]pyrimidin-6(7H)-one]"
125,18,–,"CC1(c2ccc(F)cn2)C(=O)Nc2nc(-c3cn4ccnc4c(CCCC(F)(F)F)n3)nc(C3CC3)c21 (centres unmarked) [Example 73B, 4-cyclopropyl-5-(5-fluoropyridin-2-yl)-5-methyl-2-(8-(4,4,4-trifluorobutyl)imidazo[1,2-a]pyrazin-6-yl)-5H-pyrrolo[2,3-d]pyrimidin-6(7H)-one]"
–,83,120,"O=C1Nc2nc(-c3cn4ccnc4c(Cc4ccc(F)cc4)n3)ncc2C1(C(=O)NC1CC1)C1CC1 (single isomer, unassigned) [Example 68B, N,5-dicyclopropyl-2-(8-(4-fluorobenzyl)imidazo[1,2-a]pyrazin-6-yl)-6-oxo-6,7-dihydro-5H-pyrrolo[2,3-d]pyrimidine-5-carboxamide]"
126,658,–,"O=C1Nc2nc(-c3cn4ccnc4c(CCCC(F)(F)F)n3)nc(O)c2C1(c1ccc(Cl)cn1)C1CC1 (centres unmarked) [Example 10A, 5-(5-chloropyridin-2-yl)-5-cyclopropyl-4-hydroxy-2-(8-(4,4,4-trifluorobutyl)imidazo[1,2-a]pyrazin-6-yl)-5H-pyrrolo[2,3-d]pyrimidin-6(7H)-one]"
126,438,–,"O=C1Nc2nc(-c3cn4ccnc4c(CCCC(F)(F)F)n3)nc(O)c2C1(c1ccc(Cl)c(F)c1)C1CC1 (centres unmarked) [Example 22A, 5-(4-chloro-3-fluorophenyl)-5-cyclopropyl-4-hydroxy-2-(8-(4,4,4-trifluorobutyl)imidazo[1,2-a]pyrazin-6-yl)-5H-pyrrolo[2,3-d]pyrimidin-6(7H)-one]"
111,107,–,"CCCCc1nc(-c2nc(O)c3c(n2)NC(=O)C3(c2ccc(Cl)cc2F)C2CC2)cn2ccnc12 (centres unmarked) [Example 33A, 2-(8-butylimidazo[1,2-a]pyrazin-6-yl)-5-(4-chloro-2-fluorophenyl)-5-cyclopropyl-4-hydroxy-5H-pyrrolo[2,3-d]pyrimidin-6(7H)-one]"
100,133,–,"CCCCc1nc(-c2nc(O)c3c(n2)NC(=O)C3(C)c2ccc(F)cc2)cn2ccnc12 (centres unmarked) [Example 79A, 2-(8-Butylimidazo[1,2-a]pyrazin-6-yl)-5-(4-fluorophenyl)-4-hydroxy-5-methyl-5H-pyrrolo[2,3-d]pyrimidin-6(7H)-one]"
–,38,179,"CC1(C(=O)NC2CC2)C(=O)Nc2nc(-c3cn4ccnc4c(Cc4ccccc4F)n3)ncc21 (single isomer, unassigned) [Example 69A, N-cyclopropyl-2-(8-(2-fluorobenzyl)imidazo[1,2-a]pyrazin-6-yl)-5-methyl-6-oxo-6,7-dihydro-5H-pyrrolo[2,3-d]pyrimidine-5-carboxamide]"
